Measured values as given in the supplement of paper PMC11281043.

Tests used:
Details in all cases: exposure: 6-8 hpf to 5 dpf, scored at 6 dpf
Danio rerio embryo/larva [1] = experiment: max % larvae with pigmentation defects across tested concentrations; higher = more toxic
Danio rerio embryo/larva [2] = experiment: max % larvae with edema across tested concentrations; higher = more toxic; extreme values may be limits of the assay
Danio rerio embryo/larva [3] = experiment: max % larvae with tail defects across tested concentrations; higher = more toxic; extreme values may be limits of the assay
Danio rerio embryo/larva [4] = experiment: max % larvae with blood pooling across tested concentrations; higher = more toxic; extreme values may be limits of the assay
Danio rerio embryo/larva [5] = experiment: max % larvae generally abnormal across tested concentrations; higher = more toxic; extreme values may be limits of the assay
Danio rerio embryo/larva [6] = experiment: max % larvae with spinal defects across tested concentrations; higher = more toxic; extreme values may be limits of the assay
Danio rerio embryo/larva [7] = experiment: max % larvae with abnormal position across tested concentrations; higher = more toxic; extreme values may be limits of the assay
Danio rerio embryo/larva [8] = experiment: max % larvae with craniofacial defects across tested concentrations; higher = more toxic; extreme values may be limits of the assay
Danio rerio embryo/larva [9] = experiment: max % larvae with uninflated swim bladder across tested concentrations; higher = more toxic; extreme values may be limits of the assay
Danio rerio embryo/larva [10] = experiment: max % larvae unhatched across tested concentrations; max tested concentration (log10 uM): 2; higher = more toxic
Danio rerio embryo/larva [11] = experiment: max % larvae with any abnormality across tested concentrations; max tested concentration (log10 uM): 2; higher = more toxic; extreme values may be limits of the assay

SMILES | max % larvae (Danio rerio embryo/larva [1]) | max % larvae (Danio rerio embryo/larva [2]) | max % larvae (Danio rerio embryo/larva [3]) | max % larvae (Danio rerio embryo/larva [4]) | max % larvae generally abnormal across tested concentrations (Danio rerio embryo/larva [5]) | max % larvae (Danio rerio embryo/larva [6]) | max % larvae (Danio rerio embryo/larva [7]) | max % larvae (Danio rerio embryo/larva [8]) | max % larvae (Danio rerio embryo/larva [9]) | max % larvae unhatched across tested concentrations (Danio rerio embryo/larva [10]) | max % larvae (Danio rerio embryo/larva [11])
FC(F)(F)C(F)(C(F)(F)F)C(F)(F)C(F)(F)CC1CO1 (stereo unspecified) [3-(Perfluoro-3-methylbutyl)-1,2-propenoxide] (max tested concentration (log10 uM): 1.60206) | 0% | 0% | 0% | 0% | 0% | 0% | 0% | 0% | 0% | – | –
OCCC(F)(F)C(F)(F)C(F)(F)C(F)(F)C(F)(F)C(F)(F)C(F)(F)C(F)(F)F [2-(Perfluorooctyl)ethanol] (max tested concentration (log10 uM): 2) | 0% | 19.4% | 0% | 0% | 22.2% | 0% | 8.33% | 0% | 44.4% | – | –
O=S(=O)(O)CCC(F)(F)C(F)(F)C(F)(F)C(F)(F)C(F)(F)C(F)(F)C(F)(F)C(F)(F)F [8:2 Fluorotelomer sulfonic acid] (max tested concentration (log10 uM): 2) | 0% | 0% | 0% | 0% | 0% | 0% | 0% | 0% | 0% | – | –
FC(F)(F)C(F)(F)C(F)(F)C(F)(F)CCI [1H,1H,2H,2H-Perfluorohexyl iodide] (max tested concentration (log10 uM): 2) | 0% | 8.33% | 0% | 0% | 8.33% | 0% | 0% | 0% | 0% | – | –
O=C(Cl)C(F)(F)C(F)(F)C(F)(F)C(F)(F)C(F)(F)C(F)(F)F [Perfluoroheptanoyl chloride] (max tested concentration (log10 uM): 2) | 0% | 16.7% | 8.33% | 0% | 16.7% | 8.33% | 4.17% | 16.7% | 16.7% | – | –
OCC(F)(F)OC(F)(F)C(F)(F)OC(F)(F)C(F)(F)OC(F)(F)CO [1H,1H,11H,11H-Perfluorotetraethylene glycol] | – | – | – | – | – | – | – | – | – | 0% | 100%
O=C(O)C(F)(F)C(F)(F)C(F)(F)C(F)(F)C(F)(F)C(F)(F)C(F)(F)F [Ammonium perfluorooctanoate] | – | – | – | – | – | – | – | – | – | 0% | 16.7%
O=C(O)C(F)(F)C(F)(F)C(F)(F)C(F)(F)C(F)(F)C(F)(F)C(F)(F)C(F)(F)C(F)(F)C(F)(F)C(F)(F)C(F)(F)F [Perfluorotridecanoic acid] (max tested concentration (log10 uM): 1.30103) | 0% | 16.7% | 0% | 16.7% | 16.7% | 0% | 8.33% | 16.7% | 16.7% | – | –
CCCCCCCCC(F)(F)C(F)(F)C(F)(F)C(F)(F)C(F)(F)C(F)(F)F [1-(Perfluorohexyl)octane] (max tested concentration (log10 uM): 1.60206) | 0% | 0% | 0% | 0% | 0% | 0% | 0% | 0% | 0% | – | –
O=C(O)CCC(F)(C(F)(F)F)C(F)(F)F [4,4-bis(Trifluoromethyl)-4-fluoropropanoic acid] (max tested concentration (log10 uM): 2) | 0% | 0% | 0% | 0% | 0% | 0% | 0% | 0% | 0% | – | –
C=C(C)C(=O)OCCC(F)(F)C(F)(F)C(F)(F)C(F)(F)C(F)(C(F)(F)F)C(F)(F)F [(Perfluoro-5-methylhexyl)ethyl 2-methylprop-2-enoate] (max tested concentration (log10 uM): 2) | 0% | 0% | 0% | 0% | 0% | 0% | 0% | 0% | 0% | – | –
O=C(Cl)C(F)(F)C(F)(F)C(F)(F)C(F)(F)C(F)(F)C(F)(F)C(F)(F)F [Pentadecafluorooctanoyl chloride] (max tested concentration (log10 uM): 2) | 0% | 16.7% | 12.5% | 16.7% | 16.7% | 12.5% | 12.5% | 16.7% | 16.7% | – | –
O=S(=O)(O)C(F)(F)C(F)(F)C(F)(F)C(F)(F)F [Potassium perfluorobutanesulfonate] (max tested concentration (log10 uM): 2) | 0% | 0% | 0% | 0% | 4.17% | 0% | 0% | 0% | 8.33% | – | –
OCC(F)(F)C(F)(F)C(F)(F)C(F)(F)C(F)(F)C(F)(F)C(F)(F)C(F)(F)C(F)(F)C(F)(F)C(F)(F)F [11:1 Fluorotelomer alcohol] (max tested concentration (log10 uM): 1.30103) | 0% | 0% | 0% | 0% | 0% | 0% | 0% | 0% | 0% | – | –
CCOC(=O)CC(=O)C(F)(F)C(F)(F)F [Ethyl pentafluoropropionyl acetate] (max tested concentration (log10 uM): 2) | 0% | 0% | 0% | 0% | 0% | 0% | 0% | 0% | 0% | – | –
C=CC(=O)OCC(F)(F)C(F)(F)C(F)(F)C(F)(F)C(F)(F)C(F)(F)C(F)(F)F [1H,1H-Perfluorooctyl acrylate] (max tested concentration (log10 uM): 2) | 0% | 0% | 0% | 0% | 0% | 0% | 0% | 0% | 0% | – | –

SMILES | max % larvae (Danio rerio embryo/larva [1]) | max % larvae (Danio rerio embryo/larva [2]) | max % larvae (Danio rerio embryo/larva [3]) | max % larvae (Danio rerio embryo/larva [4]) | max % larvae generally abnormal across tested concentrations (Danio rerio embryo/larva [5]) | max % larvae (Danio rerio embryo/larva [6]) | max % larvae (Danio rerio embryo/larva [7]) | max % larvae (Danio rerio embryo/larva [8]) | max % larvae (Danio rerio embryo/larva [9]) | max % larvae unhatched across tested concentrations (Danio rerio embryo/larva [10]) | max % larvae (Danio rerio embryo/larva [11])
C=CC(=O)OCC(F)(F)C(F)(F)C(F)(F)COC(=O)C=C [1H,1H,5H,5H-Perfluoro-1,5-pentanediol diacrylate] (max tested concentration (log10 uM): 1) | 0% | 33.3% | 25% | 0% | 33.3% | 8.33% | 0% | 33.3% | 16.7% | – | –
FC(F)(F)C(F)(F)C(F)(F)C(F)(F)C(F)(F)C(F)(F)C(F)(F)CCI [1-Iodo-1H,1H,2H,2H-perfluorononane] (max tested concentration (log10 uM): 1.60206) | 0% | 0% | 0% | 0% | 0% | 0% | 0% | 0% | 0% | – | –
C=CC(=O)OCC(F)(F)C(F)(F)C(F)(F)C(F)(F)C(F)(F)C(F)(F)C(F)(F)C(F)F [1H,1H,9H-Perfluorononyl acrylate] (max tested concentration (log10 uM): 2) | 0% | 9.09% | 2.27% | 0% | 9.09% | 0% | 4.55% | 9.09% | 16.7% | – | –
OCC(F)(F)C(F)(F)C(F)(F)C(F)F [1H,1H,5H-Perfluoropentanol] (max tested concentration (log10 uM): 2) | 0% | 0% | 0% | 0% | 0% | 0% | 0% | 0% | 0% | – | –
O=C(O)C(F)(F)C(F)(F)C(F)(F)C(F)(F)C(F)(F)C(F)(F)F [Perfluoroheptanoic acid] | – | – | – | – | – | – | – | – | – | 0% | 16.7%
O=P(O)(O)CCC(F)(F)C(F)(F)C(F)(F)C(F)(F)C(F)(F)C(F)(F)F [2-(Perfluorohexyl)ethylphosphonic acid] (max tested concentration (log10 uM): 2) | 0% | 60% | 0% | 0% | – | 0% | 10% | 20% | 40% | – | –
O=S(=O)(O)C(F)(F)C(F)(F)C(F)(F)C(F)(F)C(F)(F)C(F)(F)F [Perfluorohexanesulfonic acid] (max tested concentration (log10 uM): 2) | 0% | 31.2% | 0% | 25% | – | 3.12% | 31.2% | 50% | 100% | – | –
Cc1ccc(S(=O)(=O)OCC(F)(F)C(F)(F)C(F)(F)C(F)(F)C(F)(F)C(F)F)cc1 [1H,1H,7H-Perfluoroheptyl 4-methylbenzenesulfonate] (max tested concentration (log10 uM): 2) | 0% | 16.7% | 0% | 0% | – | 4.17% | 4.17% | 16.7% | 75% | – | –
C=CC(=O)OCC(F)(F)C(F)(F)C(F)(F)C(F)(F)C(F)(F)C(F)(F)C(F)(F)C(F)F [1H,1H,9H-Perfluorononyl acrylate] | – | – | – | – | – | – | – | – | – | 0% | 16.7%
O=S(=O)(O)C(F)(F)C(F)(F)C(F)(F)C(F)(F)C(F)(F)C(F)(F)C(F)(F)C(F)(F)F [Potassium perfluorooctanesulfonate] (max tested concentration (log10 uM): 2) | 0% | 100% | 100% | 33.3% | – | 50% | 50% | 100% | 100% | – | –
O=S(=O)(O)C(F)(F)C(F)(F)C(F)(F)C(F)(F)C(F)(F)C(F)(F)C(F)(F)F [Perfluoroheptanesulfonic acid] (max tested concentration (log10 uM): 1.90309) | 16.7% | 91.7% | 37.5% | 50% | – | 8.33% | 50% | 100% | 100% | – | –
O=C(O)C(F)(F)C(F)(F)C(F)(F)C(F)(F)C(F)(F)C(F)(F)C(F)(F)F [Perfluorooctanoic acid] | – | – | – | – | – | – | – | – | – | 0% | 16.7%
O=C(O)CCC(F)(F)C(F)(F)C(F)(F)F [3:3 Fluorotelomer carboxylic acid] (max tested concentration (log10 uM): 2) | 0% | 17.5% | 2.5% | 10% | – | 0% | 7.5% | 10% | 20% | – | –
NC(=O)C(F)(F)C(F)(F)C(F)(F)F [Heptafluorobutyramide] (max tested concentration (log10 uM): 2) | 0% | 8.33% | 0% | 0% | – | 0% | 0% | 0% | 10% | – | –
O=C(O)C=C(C(F)(F)F)C(F)(F)F [3,3-Bis(trifluoromethyl)-2-propenoic acid] (max tested concentration (log10 uM): 2) | 0% | 2.08% | 0% | 0% | – | 0% | 0% | 0% | 0% | – | –
